Results published in US6984619B1, “Method for protection against tumor metastasis formation” (Arch Development Corporation, priority 1999, dated 2006).
“Also recorded” adds a separate entry of the source. Read-outs that look alike come from different tables or passages of the source. Each block holds one molecule with its values, some of them ahead of it.

Tests used:
MMP-2 = target: T1, MMP-2 (Homo sapiens, UniProt P08253); experiment: Gelatin zymography of medium from treated U251 glioma cells, MMP-2; format: cell-based; details: for reduction of MMP-2 activity/secretion: 10 mM; for reduction of MMP-2 activity/secretion / inhibition of MMP-2 activity/secretion: 24 h
T1 construct: Medium was isolated at the indicated times, centrifuged at 1000 rpm for 5 min to remove debris; endogenous in cells; host or cells: U251 human glioma cells (serum-free conditioned medium)
T1 sequence (P08253 110-660): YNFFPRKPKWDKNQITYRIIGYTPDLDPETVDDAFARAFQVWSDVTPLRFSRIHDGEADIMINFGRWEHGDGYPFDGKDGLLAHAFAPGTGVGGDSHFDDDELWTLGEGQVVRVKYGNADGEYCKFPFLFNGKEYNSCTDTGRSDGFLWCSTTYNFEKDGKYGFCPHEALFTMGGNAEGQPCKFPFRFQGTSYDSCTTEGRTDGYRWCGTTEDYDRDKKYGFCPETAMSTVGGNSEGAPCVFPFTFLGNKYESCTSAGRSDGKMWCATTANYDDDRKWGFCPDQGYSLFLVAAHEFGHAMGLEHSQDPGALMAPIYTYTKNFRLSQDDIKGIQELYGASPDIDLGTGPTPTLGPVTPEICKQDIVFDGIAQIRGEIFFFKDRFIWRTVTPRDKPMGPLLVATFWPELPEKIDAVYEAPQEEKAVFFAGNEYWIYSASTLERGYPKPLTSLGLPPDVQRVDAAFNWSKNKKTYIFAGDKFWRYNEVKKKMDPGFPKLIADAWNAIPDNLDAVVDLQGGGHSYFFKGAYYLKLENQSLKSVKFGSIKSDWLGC
Description: (§1) U251 Glioma Cells were grown to confluence in 6-well plates. Medium was removed, the cells washed twice with 37° C. PBS, and serum-free medium added. The cells were treated as follows: • Control—24 h, 48 h 72 h • 40 μM SH—24 h, 48 h 72 h (continuous exposure) • 10 ng/ml TNFα—24 h, 48 h, 72 h (continuous exposure). Medium was isolated at the indicated times, centrifuged at 1000 rpm for 5 min to remove debris, and stored at −80° C. until use. Protein was quantitated using the Bradford method. 252 ng of protein was loaded on 10% zymogram (gelatin) gels (Novex, San Diego, Calif.) and electrophoresed at 125 volts for 90 min in Tris-Glycine SDS buffer. After running, the gels were incubated in zymogram renaturing buffer (100 ml) for 30 min at room temperature with gentle agitation. The buffer was removed and fresh zymogram developing buffer (100 ml) added and the gels incubated at 37° C. overnight with gentle agitation. The following day the gels were stained with 0.5% coomassie blue R-250 for 30 min, and destained. Areas of protease activity show up as clear bands. This assay will detect MMP-2 and MMP-9.
(§2) Same protocol as above. Treatment conditions were as follows: • Control—24 h • 4 mM SH—24 h (continuous exposure) • 10 mM L-NAC—24 h (continuous exposure) • 10 mM L-NAC—24 h (continuous exposure) • 10 mM Captopril—24 h (continuous exposure) • 50 mM EDTA—24 h (chelator) • 4 mM SH+50 mM EDTA—24 h • 10 mM L-NAC+50 mM EDTA—24 h • 10 mM D-NAC+50 mM EDTA—24 h • 10 mM Captopril+50 mM EDTA—24 h • 40 μM SH—24 h • 10 ng/ml TNFα—24 h

MMP-9 = target: T2, MMP-9 (Homo sapiens, UniProt P14780); experiment: Gelatin zymography of medium from treated U251 glioma cells, MMP-9; format: cell-based; details: for reduction of MMP-9 activity/secretion: 10 mM
T2 construct: Medium was isolated at the indicated times, centrifuged at 1000 rpm for 5 min to remove debris; endogenous in cells; host or cells: U251 human glioma cells (serum-free conditioned medium)
T2 sequence (P14780 94-707): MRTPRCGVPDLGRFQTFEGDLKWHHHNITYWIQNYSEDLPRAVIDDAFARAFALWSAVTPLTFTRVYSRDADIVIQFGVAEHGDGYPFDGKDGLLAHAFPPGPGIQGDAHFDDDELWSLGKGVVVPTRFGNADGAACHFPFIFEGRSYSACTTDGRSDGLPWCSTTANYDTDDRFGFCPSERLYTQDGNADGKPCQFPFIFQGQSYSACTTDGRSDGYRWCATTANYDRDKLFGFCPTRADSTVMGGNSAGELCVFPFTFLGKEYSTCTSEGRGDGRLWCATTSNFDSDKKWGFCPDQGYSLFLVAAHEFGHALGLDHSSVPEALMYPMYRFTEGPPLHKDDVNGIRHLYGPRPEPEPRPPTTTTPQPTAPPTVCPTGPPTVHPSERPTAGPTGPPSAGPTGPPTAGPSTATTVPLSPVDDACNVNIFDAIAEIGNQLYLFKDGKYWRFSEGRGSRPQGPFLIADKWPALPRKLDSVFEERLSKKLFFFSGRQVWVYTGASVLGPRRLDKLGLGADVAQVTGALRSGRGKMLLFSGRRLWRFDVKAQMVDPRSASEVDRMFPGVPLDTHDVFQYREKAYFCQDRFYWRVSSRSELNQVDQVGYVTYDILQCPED
Description: as §1, §2

MnSOD gene expression = MnSOD gene expression in glioma cells (Northern blot); format: cell-based, human
Text: FIG. 6. Effect of Amifostine on MnSOD Expression. Kinetics of manganese superoxide dismutase (MnSOD) gene expression induced in human glioma tumor cells as a function of time by WR1065, the active form of amifostine, are presented for comparison. Also included in the upper right hand corner is a representative Northern blot used to quantitate gene expression. Gene expression was induced over 3-fold as compared to untreated controls.
As previously discussed, manganese superoxide dismutase (MnSOD) has been identified as important anti-oxidant gene whose expression reduces the malignant/metastatic phenotype of cancer cells (Safford et al., 1995). Tumor cells are relatively lower in MnSOD than are normal cells. Increasing MnSOD in tumor cells causes them to loose their ability to be metastatic. As described in FIG. 6, exposure of tumor cells to WR-1065 leads to enhanced gene expression of MnSOD. […] The peak level of MnSOD expression was almost twice that observed in normal human endothelial cells exposed to WR-1065.

SA-NH = experiment: Spontaneous lung metastasis assay, SA-NH sarcoma implanted i.m., leg amputated; format: in vivo, C3Hf/Kam mice; details: for probability of developing spontaneous metastases (FIG. 1): 200, 100 or 50 mg/kg i.p., greater effects at the lower doses
Description: (§3) Animal system and experimental tumors. Experiments have been performed using C3Hf/Kam mice obtained from the University of Texas M.D. Anderson Cancer Center, Houston, Tex. Male mice were at least 110 days of age at the initiation of studies. Studies involving tumors included the use of two syngeneic adenocarcinomas (MCa-K and OCa-I,) and one sarcoma (SA-NH). Tumors were grown in the hind legs or flanks of animals. Single-cell suspensions of 5×10^5 viable tumor cells prepared from excised tumors were injected into the hind leg (spontaneous metastasis assay) or the lateral tail veins (artificial metastasis assay) of mice to develop pulmonary nodules (D. J. Grdina et al., 1974; D. J. Grdina et al., 1977; N. Suzuki et al., 1977; D. J. Grdina et al., 1978). For the spontaneous metastases studies, each thiol was administered on the first day following tumor cell inoculation, and then every third day until the tumor reaches 8.0 to 8.5 mm in diameter. At that time the tumor bearing leg is amputated and thiols were administered two and four days later. Twenty-three days following amputation, the animals were sacrificed, their lungs removed, fixed in Bouin's solution, and lung metastases counted. For the artificial metastases studies, mice were sacrificed 14 days after tumor cell inoculation and lung metastases counted (D. J. Grdina et al., 1974; D. J. Grdina et al., 1977; N. Suzuki et al., 1977; D. J. Grdina et al., 1978).
This tumor is p53 wild-type (R. Schimming et al., 1999). A tumor cell suspension containing 5×10^5 viable SA-NH cells was implanted i.m. into the right thighs of three month old male C3Hf/Kam mice. When tumors grew to 8 to 8.5 mm in diameter, each tumor bearing leg was amputated and the animals were then sacrificed 23 days later to assess both the incidence of mice developing metastases and numbers of spontaneous lung metastases formed per mouse. To assess the effects of amifostine on this process, different groups of mice were injected i.p. with 200, 100, or 50 mg/kg of WR-2721 according to the following protocol: drug administration on the first day following inoculation with tumor cells and then every third day until amputation with a final injection 2 days later.
Presented in Table 1 is a comparison of the effects of amifostine on the mean number of spontaneous metastases formed in the lungs of mice. Table 2 presents data regarding the effects of amifostine on affecting the incidence of metastasis formation using these tumor systems. The level of significance was determined using a t-test for binomial proportions (Walpole and Myers, 1978). Treatment of animals with 50 mg/kg of amifostine reduced the incidence of spontaneous metastasis development by these tumors at a level of significance of p<0.025.

MCa-K = experiment: Spontaneous lung metastasis assay, MCa-K adenocarcinoma; format: in vivo, C3Hf/Kam mice; details: 50 mg/kg WR-2721, MCaK tumor
Description: as §3, with “For the spontaneous metastases studies, each thiol was administered on the first day following tumor cell inoculation, and then every third day until the tumor reaches 8.0 to 8.5 mm in diameter. At that time the tumor bearing leg is amputated and thiols were administered two and four days later.” left out
(§4) Presented in Table 1 is a comparison of the effects of amifostine on the mean number of spontaneous metastases formed in the lungs of mice. […] The level of significance was determined using a t-test for binomial proportions (Walpole and Myers, 1978). […]

OCa-I = experiment: Spontaneous lung metastasis assay, OCa-I adenocarcinoma; format: in vivo, C3Hf/Kam mice; details: 50 mg/kg WR-2721, OCa tumor
Description: as §3, with “For the spontaneous metastases studies, each thiol was administered on the first day following tumor cell inoculation, and then every third day until the tumor reaches 8.0 to 8.5 mm in diameter. At that time the tumor bearing leg is amputated and thiols were administered two and four days later.” left out
as §4

angiostatin = experiment: Blood angiostatin by Western blot in mice with or without SA-NH tumor; format: in vivo, C3Hf/Kam mice
Description: FIG. 2. SA-NH Murine Tumor. Tumor cells (3–5×10^5) were injected into right leg muscle of C3Hf/Kam male mice. Each group consisted of 5 mice. Mice were injected i.p. with 50 mg/kg of Amifostine (Ami) one day after innoculation with viable tumor and every third day (4 times) until amputation (Amp). When tumors grew to 8–9 mm in diameter, the tumor-bearing leg was amputated. Blood was collected using a 1 ml tuberculine syringe rinsed with EDTA (100 mg/ml) or heparin and placed in an EDTA-coated microcentrifuge tube and centrifuged at 250 rpm for 10 min. The resulting supernatants were collected and frozen at −70° C. until assayed for angiostatin by Western blot analysis.
Low non-cytoprotective doses of Amifostine, in the range of 50 to 100 mg/kg, were administered every other day for six days to C3Hf/Kam mice bearing SA-NH sarcomas and twice thereafter following the surgical removal of the tumors. […] Amifostine or its free thiol form designated WR-1065 was further evaluated regarding three processes implicated in the metastatic process. (FIG. 2).

[1] = Blood level of WR-2721 in mice; format: in vivo; details: 400 mg/kg dose
Description: It is also understood that uptake after is species and organ/tissue dependent. The applicable conversion factors and physiological assumptions to be made concerning uptake and concentration measurement are well-known and would permit those of skill in the art to convert one concentration measurement to another and make reasonable comparisons and conclusions regarding the doses, afficacies and results described herein. By way of example only, in mice given 100 mg/kg WR-2721, 30-minute blood levels are reported at 49 micrograms/ml or 0.23 mM. Accordingly, a 400 mg/kg dose would correspond to a concentration of WR-2721 of about 1.0 mM. Likewise, a human subject given about 740 mg/m^2 of WR-2721 (by IV infusion) would have an initial plasma level at about 100 micromol/liter or 0.1 mM.

[2] = C3H mouse system; cited from earlier work
[3] = test system: hprt locus in splenocytes; details: mice; cited from earlier work
[4] = cited from earlier work
[5] = TNFα 10 ng/ml, continuous exposure

Molecule: C[C@H](CS)C(=O)N1CCC[C@H]1C(=O)O [Captopril]
reduction of MMP-2 activity/secretion (MMP-2): completely inhibited
reduction of MMP-9 activity/secretion (MMP-9; 24 h): completely inhibited

Molecule: CC(=O)N[C@H](CS)C(=O)O [D-NAC]
reduction of MMP-2 activity/secretion (MMP-2): 74%
reduction of MMP-9 activity/secretion (MMP-9; 24 h): 85%

Molecule: O=C(O)CN(CCN(CC(=O)O)CC(=O)O)CC(=O)O [EDTA]
inhibition of MMP-2 activity/secretion (MMP-2; 50 mM EDTA): completely inhibiting; also recorded: completely inhibited; also recorded: completely blocked
inhibition of MMP-9 activity/secretion (MMP-9; 50 mM EDTA, 24 h): completely inhibiting; also recorded: completely inhibited; also recorded: completely blocked

Molecule: CC(=O)N[C@@H](CS)C(=O)O [L-NAC, N-acetyl-L-cysteine]
reduction of MMP-2 activity/secretion (MMP-2): 69%
reduction of MMP-9 activity/secretion (MMP-9; 24 h): 73%

Molecule: Tumor Necrosis Factor alpha [TNFα]
suppression of MMP-2 secretion at 48 h and 72 h (MMP-2; [5]): still able to suppress
MMP-9 activity at 48 h and 72 h (MMP-9; [5]): continued to cause enhanced activity

More lines, main results first:

ability to reduce MMP-2 secretion at 48 h and 72 h (MMP-2; 40 μM SH, continuous exposure): lost
reduction of MMP-2 activity/secretion relative to control (MMP-2; 40 μM WR-1065 (SH), 24 h (b119 prints 45 h)): 45%
MMP-2 activity, of control levels (MMP-2; 40 μM, 24 h exposure): 55%
inhibition of MMP-2 activity/secretion (MMP-2; 4 mM WR-1065 (SH)): completely inhibiting
inhibition of MMP-2 activity/secretion (MMP-2; 4 mM WR-1065 (SH), listed as SH): completely inhibited
ability to affect MMP-9 activity at 48 h and 72 h (MMP-9; 40 μM SH, continuous exposure): lost
reduction of MMP-9 activity relative to control (MMP-9; 40 μM WR-1065 (SH), 24 h): 5%
inhibition of MMP-9 activity/secretion (MMP-9; 4 mM WR-1065 (SH), 24 h): completely inhibiting
inhibition of MMP-9 activity/secretion (MMP-9; 4 mM WR-1065 (SH), 24 h, listed as SH): completely inhibited
Molecule: NCCCNCCS [WR-1065, 2-[(aminopropyl)amino]ethanethiol]
peak level of MnSOD expression relative to normal human endothelial cells exposed to WR-1065 (MnSOD gene expression; U87 glioma cells versus normal human endothelial cells): almost twice
MnSOD gene expression during an additional 12 h (MnSOD gene expression; human glioma U87 cells, 12 to 24 h): remained at that elevated level
MnSOD gene expression enhanced (MnSOD gene expression; human glioma U87 cells, after 12 h): 2.5 fold
MnSOD gene expression induced as compared to untreated controls (MnSOD gene expression; human glioma tumor cells, FIG. 6 legend): over 3 fold

concentration of WR-2721 corresponding to dose [1]: about 1.0 mM
Molecule: NCCCNCCSP(=O)(O)O [WR-2721, S-2-(3-aminopropylamino)ethyl phosphorothioic acid]
number of spontaneous metastases (mean ± s.e.) (SA-NH; 50 mg/kg WR-2721 i.p., lung metastases per mouse, Sa-NH tumor): 2.9 ± 1.1
reduction in the development of spontaneous metastases in the lungs (SA-NH; 50 to 100 mg/kg every other day for six days and twice after surgical removal of tumor): four-fold
probability of developing spontaneous metastases (FIG. 1) (SA-NH; listed as Amifostine): actually reduced it
probability of developing spontaneous metastases (FIG. 1) (SA-NH; listed as amifostine): reduces the chances of developing spontaneous metastases
number of spontaneous metastases (mean ± s.e.) (MCa-K): 1.7 ± 1.3
number of spontaneous metastases (mean ± s.e.) (OCa-I): 0.5 ± 0.14
enhancement of angiostatin levels found in control mice (angiostatin; Amifostine injections, 50 mg/kg i.p. (FIG. 2)): four-fold
angiostatin level after removal of tumors (angiostatin; continued Amifostine treatment following tumor removal): equal to presurgery levels
induction of angiostatin production (angiostatin; tumor-free and tumor-bearing mice (FIG. 2)): effective in inducing angiostatin production
cytoprotection at doses below 100 mg/kg [2]: completely ineffective
dose required for maximum cytoprotection [2]: 400 mg/kg
doses at which the antimutagenic effect diminishes [3]: less than 10 mg/kg
net charge ([4]; disulfide form): +4
net charge ([4]; thiol form): +2
